Measurements reported in patent publication US5506102A (priority 1993, dated 1996).
Entries after “also recorded” stand apart in the source; their conditions may differ.

How the values were obtained:
human estrogen receptor [1] = target: T1, human estrogen receptor (Homo sapiens, UniProt P03372); assay: ER transcriptional activity on MMTV-ERE-LUC, CV-1 cells, ER alone; format: cell-based; settings: 10^-7 M 17-β-estradiol, FIG. 11B
T1 construct: expressed in transfected cells; host or cells: CV-1
T1 sequence (P03372 1-595): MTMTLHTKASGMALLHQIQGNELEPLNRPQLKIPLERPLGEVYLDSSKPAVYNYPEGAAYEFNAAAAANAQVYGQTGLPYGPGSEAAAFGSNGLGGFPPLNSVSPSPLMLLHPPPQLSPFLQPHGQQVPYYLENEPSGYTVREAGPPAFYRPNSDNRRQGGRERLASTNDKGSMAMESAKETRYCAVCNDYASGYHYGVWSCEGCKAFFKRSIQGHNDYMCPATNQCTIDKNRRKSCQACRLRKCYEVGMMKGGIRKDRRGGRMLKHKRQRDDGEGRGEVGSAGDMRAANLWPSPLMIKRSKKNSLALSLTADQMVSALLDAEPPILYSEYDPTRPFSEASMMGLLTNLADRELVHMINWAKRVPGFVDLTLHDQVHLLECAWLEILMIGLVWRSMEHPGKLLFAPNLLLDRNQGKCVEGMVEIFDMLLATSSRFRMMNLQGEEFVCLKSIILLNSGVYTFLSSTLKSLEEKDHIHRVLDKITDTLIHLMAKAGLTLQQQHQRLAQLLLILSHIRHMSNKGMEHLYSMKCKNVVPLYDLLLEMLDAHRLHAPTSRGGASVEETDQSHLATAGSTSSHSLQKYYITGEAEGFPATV
Protocol: (§1) All values were normalized for transfection efficiency by simultaneous estimation of luciferase and β-galactocidase activities. The relative luciferase activity is calculated by dividing the normalized luciferase value at a given point by that obtained in the absence of transfected receptor or ligand. Data shown represent the mean +/- the average deviation from the mean of triplicate estimations.
(§2) Experimental protocols and data calculation are as described in FIG. 11. The experiment detailed above is representative of independent assays (N>3). Data shown represent the mean +/- the average deviation from the mean of triplicate estimations.
(§3) Vegeto et al., supra. Cells were plated into 96-well tissue culture plates. The vector DNA was introduced into the CV-1 cells using calcium phosphate coprecipitation as described herein. More specifically, 20 μg of DNA/ml of transfection buffer were used in each transfection. […] The concentration of pXVhPR-A vector chosen was determined by performing the experiment at several different concentrations of vector, and then using that concentration that was optimal for transcriptional readout. […] The Normalized LUC activity was calculated by dividing the raw luciferase (×10^4) units for each point by the β-galactosidase activity [(OD415 nm ×10^5)/time min.] at that point.

human estrogen receptor [2] = assay: ER transcriptional activity on MMTV-ERE-LUC, CV-1 cells, ER co-expressed with PR-A; format: cell-based
Protocol: as §1, §2
Vegeto et al., supra. Cells were plated into 96-well tissue culture plates. The vector DNA was introduced into the CV-1 cells using calcium phosphate coprecipitation as described herein. More specifically, 20 μg of DNA/ml of transfection buffer were used in each transfection. Each transfection mix included 0.5 μg of pRST7hER, 9.5 μg of MMTV-ERE-LUC, 5 μg of pCH110, (which contains the gene for β-galactosidase) as an internal control and 5 μg of PGEM4 DNA as a carrier. Depending on the experiment, 0.1 μg pSVhPR-A or pSVhPR-B and an amount of pSVXV2neo (Dr. Bert O'Malley, Baylor College of Medicine) to bring the total amount of DNA to 20 μg was added. The concentration of pXVhPR-A vector chosen was determined by performing the experiment at several different concentrations of vector, and then using that concentration that was optimal for transcriptional readout. The concentration of pSVhPR-B vector was chosen based upon the amount required to give an identical amount of immunoreactive PR-A and PR-B. After transfections using a Biomek 1000 automated laboratory workstation, the cells were incubated with the precipitate for 6 hours. Cells were washed with PBS and incubated for 40 hours with or without hormones as indicated. Cell extracts were prepared as previously described herein and assayed for luciferase (LUC) and β-galactosidase activities. The Normalized LUC activity was calculated by dividing the raw luciferase (×10^4) units for each point by the β-galactosidase activity [(OD415 nm ×10^5)/time min.] at that point.

human estrogen receptor [3] = target: T1, human estrogen receptor; assay: ER transcriptional activity on MMTV-ERE-LUC, CV-1 cells, ER co-expressed with PR-B; format: cell-based; settings: FIG. 11B
Protocol: as §1
as §3, with “transfection. Each transfection mix included 0.5 μg of pRST7hER, 9.5 μg of MMTV-ERE-LUC, 5 μg of pCH110, (which contains the gene for β-galactosidase) as an internal control and 5 μg of PGEM4 DNA as a carrier.” for “transfection.”

[4] = target: T2, glucocorticoid receptor (GR) (Homo sapiens, UniProt P04150)
T2 sequence (P04150 1-777): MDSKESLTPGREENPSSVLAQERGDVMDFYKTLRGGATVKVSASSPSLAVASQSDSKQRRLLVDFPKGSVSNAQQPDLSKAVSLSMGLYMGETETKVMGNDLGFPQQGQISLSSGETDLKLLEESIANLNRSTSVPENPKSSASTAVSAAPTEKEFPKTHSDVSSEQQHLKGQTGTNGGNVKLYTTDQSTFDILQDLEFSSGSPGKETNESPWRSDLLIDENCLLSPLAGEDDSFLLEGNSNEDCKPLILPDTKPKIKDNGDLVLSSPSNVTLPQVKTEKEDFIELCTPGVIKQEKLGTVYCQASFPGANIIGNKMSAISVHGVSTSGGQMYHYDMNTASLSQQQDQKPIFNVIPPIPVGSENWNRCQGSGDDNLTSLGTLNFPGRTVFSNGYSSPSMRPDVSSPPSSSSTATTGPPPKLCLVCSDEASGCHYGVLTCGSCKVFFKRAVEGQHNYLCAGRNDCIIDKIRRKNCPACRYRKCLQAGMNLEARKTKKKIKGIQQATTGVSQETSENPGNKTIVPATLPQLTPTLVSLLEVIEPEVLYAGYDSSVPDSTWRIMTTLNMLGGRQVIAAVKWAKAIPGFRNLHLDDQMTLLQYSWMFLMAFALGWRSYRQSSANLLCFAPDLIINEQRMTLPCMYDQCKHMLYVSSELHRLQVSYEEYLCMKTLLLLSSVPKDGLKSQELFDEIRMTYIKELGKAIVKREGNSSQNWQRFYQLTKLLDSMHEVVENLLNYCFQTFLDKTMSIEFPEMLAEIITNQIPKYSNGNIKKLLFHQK
Protocol: (§4) Cells were seeded in 12-well, 96-well or 10 cm tissue culture plates. […] 20 μg of DNA/ml of transfection buffer were used in each transfection reaction. In this mix, the concentration of the luciferase plasmids and that of the internal control plasmid pCH110 (Pharmacia, Inc.), which contains the gene for the β-galactosidase enzyme, remained constant ([…] of each plasmid DNA), while the receptor plasmid concentration varied as indicated for each experiment. Different amounts of receptor parental plasmid, pSV2-neo (Dr. Bert O'Malley, Baylor College of Medicine, Houston, Tex.) was included to keep constant the total amount of the SV40 enhancer vectors. pGEM4 plasmid DNA (Promega Biotech, Madison, Wis.) was added to balance the total DNA concentration to 20 g/reaction. For the 96-well plate experiments, transfections were performed on a Biomek 1000 Automated Laboratory Workstation (Beckman Instruments, Fullerton, Calif.).
(§5) Cells were seeded 24 hours prior to transfection in the fiat-bottom tissue culture plates ([…]) in phenol red-free DMEM containing 10% FCS. […] Using calcium phosphate co-precipitation, DNA solution was added dropwise with vortexing into an equal volume of 2X HBS pH 6.9 (280 mM NaCl. 50 mM HEPES, 1.5 mM Na2 HPO4) and precipitates were allowed to form for 20 minutes. Cells were transfected ( […] of DNA mix/well) for 6 hours and then washed with phosphate-bufferedsaline (PBS) to remove the precipitate. Cells were incubated for an additional 24 hours in phenol red-free medium containing 10% charcoal-treated FCS, with or without hormones as indicated in the text. Cell extracts were prepared as described by Berger et al., Supra, and assayed for luciferase and β-galactosidase activities. All determinations were performed in triplicates in at least two independent experiments, and were normalized for transfection efficiency by using β-galactosidase as an internal control.

[5] = test system: glucocorticoid receptor (GR); assay: GR transcriptional activity on MMTV-LUC, CV-1 cells, GR co-expressed with PR-A; format: cell-based
Protocol: as §4, §5

human androgen receptor [6] = target: T3, human androgen receptor (Homo sapiens, UniProt P10275); assay: AR transcriptional activity on MMTV-LUC, CV-1 cells, AR alone; format: cell-based; settings: FIG. 10
T3 sequence (P10275 1-920): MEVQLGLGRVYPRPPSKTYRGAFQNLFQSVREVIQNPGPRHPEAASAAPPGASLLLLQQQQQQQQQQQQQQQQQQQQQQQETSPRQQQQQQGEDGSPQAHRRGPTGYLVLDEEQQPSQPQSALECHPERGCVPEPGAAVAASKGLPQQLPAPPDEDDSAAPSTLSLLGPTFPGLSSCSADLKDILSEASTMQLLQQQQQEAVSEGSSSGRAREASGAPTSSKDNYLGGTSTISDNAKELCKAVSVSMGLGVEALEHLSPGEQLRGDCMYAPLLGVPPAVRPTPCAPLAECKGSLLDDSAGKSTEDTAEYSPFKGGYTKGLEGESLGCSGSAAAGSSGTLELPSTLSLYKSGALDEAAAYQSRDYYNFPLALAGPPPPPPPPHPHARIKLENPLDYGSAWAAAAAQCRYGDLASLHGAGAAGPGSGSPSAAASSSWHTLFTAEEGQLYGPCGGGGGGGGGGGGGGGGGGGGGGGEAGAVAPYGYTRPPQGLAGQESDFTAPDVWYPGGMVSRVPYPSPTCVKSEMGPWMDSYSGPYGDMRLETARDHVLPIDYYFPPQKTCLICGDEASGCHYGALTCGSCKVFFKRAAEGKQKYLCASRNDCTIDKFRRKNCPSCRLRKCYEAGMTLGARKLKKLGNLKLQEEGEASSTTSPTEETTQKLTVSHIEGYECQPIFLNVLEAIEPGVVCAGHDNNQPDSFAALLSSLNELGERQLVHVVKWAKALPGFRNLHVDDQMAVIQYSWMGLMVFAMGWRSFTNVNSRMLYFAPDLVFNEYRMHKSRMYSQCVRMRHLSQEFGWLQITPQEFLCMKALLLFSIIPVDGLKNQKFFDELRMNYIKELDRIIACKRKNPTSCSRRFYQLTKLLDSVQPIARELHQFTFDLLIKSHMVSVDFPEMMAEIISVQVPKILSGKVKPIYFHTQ
Protocol: (§6) FIGS. 10A-10B are a series of graphs showing CV-1 cells that were transiently transfected with an expression vector for the human androgen receptor (pRShAR) alone, or in combination with phPR-A together with 5 µg/ml of the MMTV-LUC reporter and 5 µg/ml of pCH110 as an internal control. […] The relative luciferase activity is calculated by dividing the normalized luciferase value at a given point by that obtained in the absence of transfected receptor or ligand. […] The data are presented as percent (%) activation, where 100% represents the maximal induction achieved by human androgen receptor at 10^ -8 M DHT. The experimental data represents mean values +/- the average deviation from the mean of quadruplicate estimations;
(§7) Cells were seeded in 12-well, 96-well or 10 cm tissue culture plates. […] 20 μg of DNA/ml of transfection buffer were used in each transfection reaction. In this mix, the concentration of the luciferase plasmids and that of the internal control plasmid pCH110 (Pharmacia, Inc.), which contains the gene for the β-galactosidase enzyme, remained constant ([…] of each plasmid DNA), while the receptor plasmid concentration varied as indicated for each experiment. […]

human androgen receptor [7] = target: T3, human androgen receptor; assay: AR transcriptional activity on MMTV-LUC, CV-1 cells, AR co-expressed with PR-A; format: cell-based; settings: AR plus PR-A, FIG. 10B
Protocol: as §6, §7

ER = ER transcriptional activity on MMTV-ERE-LUC in HepG2 and HS578T cells; format: cell-based; settings: data not shown
AR = settings: stated without data; cited from earlier work
PR = settings: cited from earlier work

CCCCN(C)C(=O)CCCCCCCCCC[C@@H]1Cc2cc(O)ccc2[C@H]2CC[C@]3(C)[C@@H](O)CC[C@H]3[C@H]12 [ICI-164,384]
inhibition of 17-β-estradiol induced ER transcriptional activation (human estrogen receptor [1]): can be inhibited by addition of the pure anti-estrogen ICI-164,384 | effect of hPR-A co-expression on activity of ICI-164,384 (human estrogen receptor [2]; FIG. 11B): did not affect the activity | effect of hPR-B co-expression on activity of ICI-164,384 (human estrogen receptor [3]): did not affect the activity

C[C@@H]1C[C@H]2[C@@H]3CCC4=CC(=O)C=C[C@]4(C)[C@@]3(F)[C@@H](O)C[C@]2(C)[C@@]1(O)C(=O)CO [dexamethasone]
maximally activated GR (100% value) [4]: > 450 normalized response | maximal activity of GR (100% value) ([4]; cv-1 cells, 0.01 µM): > 450 fold normalized response | induction of MMTV promoter activity ([4]; cv-1 cells, 24 h, 0.1 µM): 450 fold | dexamethasone induction of GR activity, of control levels [5]: about 53%

CC(=O)O[C@]1(C(C)=O)CC[C@H]2[C@@H]3C[C@H](C)C4=CC(=O)CC[C@]4(C)[C@H]3CC[C@@]21C [medroxyprogesterone acetate, Medroxyprogesterone acetate]
anti-estrogen activity of PR agonists (human estrogen receptor [2]; PR-A co-expressed, 10^-7 M 17-β-estradiol, FIG. 13): considerably less effective

CN(C)c1ccc([C@H]2C[C@]3(C)[C@@H](CC[C@]3(O)CCCO)[C@@H]3CCC4=CC(=O)CCC4=C32)cc1 [ZK98299]
inhibition of GR function via PR-A ([5]; MMTV promoter, dexamethasone present, FIG. 8A): mediated an inhibition of GR function; also recorded: promotes PR-A repressor function | effect on DHT-induced AR activity (human androgen receptor [6]): minimal direct effects on AR transcriptional activity | effect on DHT-induced AR activity in the presence of PR-A (human androgen receptor [7]): addition of PR-A to the cells increased this compound's sensitivity | IC50 (human estrogen receptor [2]; 10^-7 M 17-β-estradiol, read-out: half maximal inhibition (IC50) of ER in the presence of hPR-A): 3 nM | efficacy compared to the pure anti-estrogen ICI-164,384 (human estrogen receptor [2]; PR-A co-expressed, 100% = 10^-7 M 17-β-estradiol + 10^-6 M ICI-164,384, FIG. 12): 70% | anti-estrogenic activity (ER; HS578T cells): both anti-progestins functioned as anti-estrogens | anti-estrogenic activity (ER; HepG2 cells): neither anti-progestin exhibited any anti-estrogenic activity | affinity for AR (AR): low affinity for AR | effect on PR DNA binding (PR): retards DNA binding; also recorded: interferes with DNA binding
